# Source: patent publication US20170107294A1, “ANTI-CD14 ANTIBODIES AND USES THEREOF” (Nordlandssykehuset HF, priority 2014, published 2017)
# Tests used:
# [1] = target: factor D (Homo sapiens, UniProt P00746); conditions: cited from earlier work
# [2] = target: human C1q (Homo sapiens, UniProt P02745+P02746+P02747); test: ELISA for C1q binding
# Experimental: Ninety-six-well plates (Nunc, Roskilde, Denmark) were coated with serial dilution of the Abs (6.0-0.09 mg/ml) and incubated overnight at 4° C. followed by washing three times with PBS/Tween (pH 7.4). The wells were blocked with 4% skimmed milk (Neogen Europe, Auchincruive, U.K.) for 1 h at room temperature and then washed in PBS/Tween (pH 6.0). Purified hFcRn-GST or pFcRn-GST (1 mg/ml) were diluted in 4% skimmed milk in PBS/Tween (pH 6.0) and preincubated with an HRP-conjugated anti-GST Ab (GE Healthcare U.K., Buckinghamshire, U.K.) diluted 1:5000 and added to the wells. The plates were incubated for 1 h at room temperature and washed with PBS/Tween (pH 6.0). Bound receptor was detected by adding 100 ml of 3,39,5,59-tetramethylbenzidine substrate (Calbiochem-Novabiochem, Nottingham, U.K.). The absorbance was measured at 450 nm using a Sunrise TECAN spectrophotometer. The assay described above was also performed using PBS/Tween (pH 7.4) in all steps. The same setup was used with GST-fused versions of hFcgRI, hFcgRIIa (allotype His131), hFcgRIIb, hFcgRIIIa (allotype Val158), and hFcgRIIIb (1 mg/ml each). In addition, a biotinylated human C1q (hC1 q; 4 mg/ml) preparation was incubated with the Abs and detected using ALP-conjugated streptavidin (GE Healthcare). Absorbance was measured at 405 nm.
# Sequence of factor D (P00746 26-253): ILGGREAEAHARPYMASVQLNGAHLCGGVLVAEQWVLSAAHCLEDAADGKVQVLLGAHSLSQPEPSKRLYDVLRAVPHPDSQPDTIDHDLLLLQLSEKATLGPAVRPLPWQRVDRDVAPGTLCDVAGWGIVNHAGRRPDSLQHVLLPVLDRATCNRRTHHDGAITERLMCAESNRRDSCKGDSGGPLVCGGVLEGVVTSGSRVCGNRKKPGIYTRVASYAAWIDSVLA
# Sequence of human C1q (P02745 23-245): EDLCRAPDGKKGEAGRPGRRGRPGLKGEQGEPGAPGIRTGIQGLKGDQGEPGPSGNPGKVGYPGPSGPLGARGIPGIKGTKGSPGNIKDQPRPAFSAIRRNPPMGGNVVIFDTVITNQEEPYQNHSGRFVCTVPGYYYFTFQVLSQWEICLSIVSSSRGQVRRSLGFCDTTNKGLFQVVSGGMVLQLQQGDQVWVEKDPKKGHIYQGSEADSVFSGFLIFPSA
# Sequence of human C1q (P02746 28-253): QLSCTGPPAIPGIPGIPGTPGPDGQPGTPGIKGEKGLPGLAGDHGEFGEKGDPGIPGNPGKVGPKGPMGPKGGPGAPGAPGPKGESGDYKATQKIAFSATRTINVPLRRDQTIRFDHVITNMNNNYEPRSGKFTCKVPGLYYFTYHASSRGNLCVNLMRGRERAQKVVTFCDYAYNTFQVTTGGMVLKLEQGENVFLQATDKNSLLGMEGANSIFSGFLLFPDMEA
# Sequence of human C1q (P02747 29-245): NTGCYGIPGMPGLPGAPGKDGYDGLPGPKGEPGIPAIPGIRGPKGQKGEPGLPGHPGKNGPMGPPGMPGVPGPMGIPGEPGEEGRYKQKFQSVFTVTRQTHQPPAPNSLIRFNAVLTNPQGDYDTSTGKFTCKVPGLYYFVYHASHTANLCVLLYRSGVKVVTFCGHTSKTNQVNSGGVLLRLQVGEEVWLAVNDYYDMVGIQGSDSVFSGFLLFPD
binding to C1q [2],Molecule,IC50 [1] [nM]
–,N=C(N)c1cc2ccc(OC(=O)c3cccs3)cc2s1 [BCX-1470],96
did so in a dose-dependent manner,"rituximab: humanized anti-CD20 IgG1 Ab from Roche, control for ELISA-based binding studies",–
